A short description of series [1]: Cytotoxicity against human HET-1A cells assessed as cell viability at 500 uM after 24 hrs by MTT assay relative to control. Format: cell-based. On the technique in general: Formazan colour is commonly taken as a measure of viable cells.
The nature of series [2]: Cytotoxicity against human HuH7 cells assessed as cell viability at 500 uM after 24 hrs by MTT assay relative to control. Format: cell-based, Huh-7.
A short description of series [3]: Cytotoxicity against human HET-1A cells assessed as cell viability after 24 hrs by MTT assay. Format: cell-based.
Series [4] in a line: Cytotoxicity against human HET-1A cells assessed as cell viability at >1 mM after 24 hrs by MTT assay. Format: cell-based.

By viability is commonly meant a read-out of living cells in per cent, often relative to untreated cells. Regarding `C[C@H](CCCO)[C@H]1CC[C@H]2[C@@H]3[C@@H](O)C[C@@H]4C[C@H](O)CC[C@]4(C)[C@H]3CC[C@]12C`, the results for the viability at 24 h, 500 µM in series [1] and in series [2] were 97.5% and 44.5%, respectively.

A word on the CC50: it is the concentration giving 50% cytotoxicity. With `C[C@H](CCCN=[N+]=[N-])[C@H]1CC[C@H]2[C@@H]3[C@@H](O)C[C@@H]4C[C@H](O)CC[C@]4(C)[C@H]3CC[C@]12C`, the viability at 24 h, 500 µM in series [1] was found to be 75.9%; in series [2], 45.1%. In addition, in series [3], the CC50 at 24 h is 688 µM.

`C[C@H](CCC(N)=O)[C@H]1CC[C@H]2[C@@H]3CC[C@@H]4C[C@H](O)CC[C@]4(C)[C@H]3C[C@H](O)[C@]12C`: the viability at 24 h, 500 µM in series [1] is 38.6%; in series [2], 25.2%. The CC50 at 24 h in series [3] is 39 µM.

In the case of `C[C@H](CCC(=O)O)[C@H]1CC[C@H]2[C@@H]3CC[C@@H]4C[C@H](N=[N+]=[N-])CC[C@]4(C)[C@H]3C[C@H](O)[C@]12C`, the results for the viability at 24 h, 500 µM in series [1] and in series [2] were 30.7% and 37.1%, respectively. In addition, the half-maximal cytotoxic concentration (CC50) at 24 h in series [3] is 71 µM.

`C[C@H](CCC(=O)O)[C@H]1CC[C@H]2[C@@H]3CC[C@@H]4C[C@@H](N=[N+]=[N-])CC[C@]4(C)[C@H]3C[C@H](O)[C@]12C`: the viability at 24 h, 500 µM in series [1] worked out at 35.4%; in series [2], 108%. In addition, the CC50 at 24 h in series [3] turned out to be 97 µM.

Turning to `C[C@H](CCC(=O)O)[C@H]1CC[C@H]2[C@@H]3CC[C@@H]4C[C@H](O)CC[C@]4(C)[C@H]3CC(=O)[C@]12C`, the viability at 24 h, 500 µM in series [1] is 81.8%; in series [2] it was 80.6%.

For `C[C@H](CCC(=O)O)[C@H]1CC[C@H]2[C@@H]3C(=O)C[C@@H]4C[C@H](O)CC[C@]4(C)[C@H]3CC[C@]12C`, the figures for the viability at 24 h, 500 µM in series [1] and in series [2] were 76.9% and 75.6%, respectively.

Take `CC(=O)O[C@@H]1CC[C@@]2(C)[C@H](CC(=O)[C@@H]3[C@@H]2CC[C@]2(C)[C@@H]([C@H](C)CCC(=O)O)CC[C@@H]32)C1`: the viability at 24 h, 500 µM in series [1] worked out at 47.2%; in series [2], 77.7%. In addition, in series [3], the CC50 at 24 h was found to be 366 µM.

With `C[C@H](CCC(=O)O)[C@H]1CC[C@H]2[C@@H]3C(=O)C[C@@H]4CC(=O)CC[C@]4(C)[C@H]3CC[C@]12C`, the viability at 24 h, 500 µM was found to be 93.5% in series [1] and 54.6% in series [2].

On to `C[C@H](CCC(=O)O)[C@H]1CC[C@H]2[C@@H]3[C@@H](N=[N+]=[N-])C[C@@H]4C[C@H](O)CC[C@]4(C)[C@H]3CC[C@]12C`, for which the viability at 24 h, 500 µM in series [1] turned out to be 29%; in series [2] it was 64.1%. Moreover, in series [3], the CC50 at 24 h came out at 99 µM.

For `C[C@H](CCC(=O)O)[C@H]1CC[C@H]2[C@@H]3[C@@H](O)C[C@@H]4C[C@H](O)CC[C@]4(C)[C@H]3C[C@H](O)[C@]12C`, the viability at 24 h, 500 µM came to 80.8% in series [1] and 82.3% in series [2].

Regarding `COC(=O)CC[C@@H](C)[C@H]1CC[C@H]2[C@@H]3[C@@H](O)C[C@@H]4C[C@H](O)CC[C@]4(C)[C@H]3CC[C@]12C`, the viability at 24 h, 500 µM in series [1] was determined as 94.3%; in series [2], 81.2%.

For the compound `C[C@H](CCC(=O)O)[C@H]1CC[C@H]2[C@@H]3[C@@H](O)C[C@@H]4C[C@H](N=[N+]=[N-])CC[C@]4(C)[C@H]3CC[C@]12C`, the viability at 24 h, 500 µM in series [1] is 36.8%; in series [2], 26.6%. In series [3], the CC50 at 24 h was 45 µM.

Regarding `C[C@H](CCC(=O)O)[C@H]1CC[C@H]2[C@@H]3[C@@H](O)C[C@@H]4C[C@@H](N=[N+]=[N-])CC[C@]4(C)[C@H]3CC[C@]12C`, the viability at 24 h, 500 µM was determined as 30.3% in series [1] and 101% in series [2]. The CC50 at 24 h in series [3] is 37 µM.

With `C[C@H](CCC(=O)O)[C@H]1CC[C@H]2[C@@H]3[C@@H](O)C[C@@H]4CCCC[C@]4(C)[C@H]3CC[C@]12C`, the viability at 24 h, 500 µM amounted to 39.9% in series [1] and 23.7% in series [2]. Further, the CC50 at 24 h in series [3] stood at 30 µM.

Regarding `C[C@H](C(=O)O)[C@H]1CC[C@H]2[C@@H]3[C@@H](O)C[C@@H]4C[C@H](O)CC[C@]4(C)[C@H]3CC[C@]12C`, the viability at 24 h, 500 µM came to 80.5% in series [1] and 74.8% in series [2]. The CC50 at 24 h in series [3] worked out at 799 µM.

As to `C[C@H](CCC#N)[C@H]1CC[C@H]2[C@@H]3[C@@H](O)C[C@@H]4C[C@H](O)CC[C@]4(C)[C@H]3CC[C@]12C`, the viability at 24 h, 500 µM stood at 94% in series [1] and 85.2% in series [2].

`C[C@H](C#N)[C@H]1CC[C@H]2[C@@H]3[C@@H](O)C[C@@H]4C[C@H](O)CC[C@]4(C)[C@H]3CC[C@]12C`: the viability at 24 h, 500 µM was 80.5% in series [1] and 87.3% in series [2].

On to `C[C@H](CCC(=O)O)[C@H]1CC[C@H]2[C@@H]3[C@H](O)C[C@@H]4C[C@H](O)CC[C@]4(C)[C@H]3CC[C@]12C` [CHENODIOL], for which the viability at 24 h, 500 µM in series [1] was 42.2%; in series [2], 72.3%. Also, the CC50 at 24 h in series [3] was 216 µM.

As to `C[C@H](CCC(=O)O)[C@H]1CC[C@H]2[C@@H]3[C@H](O)C[C@@H]4C[C@H](O)CC[C@]4(C)[C@H]3C[C@H](O)[C@]12C` [CHOLIC ACID], the viability at 24 h, 500 µM amounted to 102% in series [1] and 90.8% in series [2]. Further, the CC50 at 24 h in series [3] came out at 1080 µM.

`C[C@H](CCC(=O)O)[C@H]1CC[C@H]2[C@@H]3C(=O)C[C@@H]4CC(=O)CC[C@]4(C)[C@H]3CC(=O)[C@]12C` [DEHYDROCHOLIC ACID]: the viability at 24 h, 500 µM in series [1] was determined as 111%; in series [2], 54.4%.

On to `C[C@H](CCC(=O)O)[C@H]1CC[C@H]2[C@@H]3CC[C@@H]4C[C@H](O)CC[C@]4(C)[C@H]3C[C@H](O)[C@]12C` [DEOXYCHOLIC ACID], for which the viability at 24 h, 500 µM in series [1] was found to be 41.2%; in series [2], 57%. In addition, the CC50 at 24 h in series [3] was 257 µM.

Consider `C[C@H](CCC(=O)NCC(=O)O)[C@H]1CC[C@H]2[C@@H]3[C@H](O)C[C@@H]4C[C@H](O)CC[C@]4(C)[C@H]3CC[C@]12C` [GLYCOCHENODEOXYCHOLATE], for which the viability at 24 h, 500 µM in series [1] amounted to 130%; in series [2] it was 105%. For the same compound, the Activity result in series [4] is on record as “Toxic”. Moreover, in series [3], the CC50 at 24 h amounted to 729 µM.

In the case of `C[C@H](CCC(=O)NCC(=O)O)[C@H]1CC[C@H]2[C@@H]3[C@H](O)C[C@@H]4C[C@H](O)CC[C@]4(C)[C@H]3C[C@H](O)[C@]12C` [GLYCOCHOLIC ACID], the results for the viability at 24 h, 500 µM in series [1] and in series [2] were 105% and 87.7%, respectively.

In the case of `C[C@H](CCC(=O)NCC(=O)O)[C@H]1CC[C@H]2[C@@H]3CC[C@@H]4C[C@H](O)CC[C@]4(C)[C@H]3C[C@H](O)[C@]12C` [GLYCODEOXYCHOLATE], the viability at 24 h, 500 µM in series [1] is 111%; in series [2], 105%. Besides, in series [4], the Activity entry is on record as “Toxic”. Moreover, the CC50 at 24 h in series [3] turned out to be 1240 µM.

Turning to `C[C@H](CCC(=O)NCC(=O)O)[C@H]1CC[C@H]2[C@@H]3[C@@H](O)C[C@@H]4C[C@H](O)CC[C@]4(C)[C@H]3CC[C@]12C` [GLYCOURSODEOXYCHOLIC ACID], the viability at 24 h, 500 µM is 109% in series [1] and 104% in series [2].

For `C[C@H](CCC(=O)O)[C@H]1CC[C@H]2[C@@H]3C[C@H](O)[C@@H]4C[C@H](O)CC[C@]4(C)[C@H]3CC[C@]12C` [HYODEOXYCHOLIC_ACID], the viability at 24 h, 500 µM in series [1] is 88.2%; in series [2], 73.8%.

Regarding `C[C@H](CCC(=O)O)[C@H]1CC[C@H]2[C@@H]3CC[C@@H]4C[C@H](O)CC[C@]4(C)[C@H]3C[C@@H](O)[C@]12C` [LAGODEOXYCHOLATE], the viability at 24 h, 500 µM stood at 59% in series [1] and 89% in series [2]. In addition, in series [3], the CC50 at 24 h is 389 µM.

As for `C[C@H](CCC(=O)O)[C@H]1CC[C@H]2[C@@H]3CC[C@@H]4C[C@H](O)CC[C@]4(C)[C@H]3CC[C@]12C` [LITHOCHOLIC ACID], the viability at 24 h, 500 µM in series [1] was 41.7%; in series [2], 63.7%. The CC50 at 24 h in series [3] was 25 µM.

In the case of `COC(=O)CC[C@@H](C)[C@H]1CC[C@H]2[C@@H]3CC[C@@H]4C[C@H](O)CC[C@]4(C)[C@H]3C[C@H](O)[C@]12C` [METHYL DEOXYCHOLATE], the viability at 24 h, 500 µM turned out to be 28.1% in series [1] and 48.8% in series [2]. The CC50 at 24 h in series [3] came out at 46 µM.

Consider `C[C@H](CC(=O)O)[C@H]1CC[C@H]2[C@@H]3[C@@H](O)C[C@@H]4C[C@H](O)CC[C@]4(C)[C@H]3CC[C@]12C` [NORUCHOLIC ACID], for which the viability at 24 h, 500 µM was found to be 88.8% in series [1] and 71.8% in series [2].

Turning to `C[C@H](CCC(=O)O)[C@H]1CC[C@H]2[C@@H]3[C@@H](O)C[C@@H]4C[C@H](O)CC[C@]4(C)[C@H]3CC[C@]12C` [URSODIOL], the viability at 24 h, 500 µM in series [1] was found to be 78.8%; in series [2] it was 74%. The CC50 at 24 h in series [3] is 1310 µM.

Source of the values: ChEMBL document CHEMBL1250512, “Bile acid toxicity structure-activity relationships: correlations between cell viability and lipophilicity in a panel of new and known bile acids using an oesophageal cell line (HET-1A)” (Bioorg Med Chem, 2010).
